The subject of data set [1] is rhesus monkeys with spontaneous chronic kidney disease. The experiment in a line: Effect on serum K+, 8-week administration. The settings on record: Valsartan group (n = 3). On the procedure: In the trial, animals were brought in three stages. In the first stage, there were two groups: 3 animals (No. 257, No. 4721, No. 287) in a group with 5 mg/kg of the malate of compound of formula I, and 2 animals (No. 1029, No. 4713) in the placebo group. […] In the third stage, there were two groups: 5 animals (No. 4829, No. 6501, No. 287, No. 4721, No. 2091) in a group with 2 mg/kg of the malate of compound of formula I, and 5 animals (No. 1567, No. 4861, No. 5453, No. 6653, No. 5073) in a group with 1 mg/kg of the malate of compound of formula I.
Serum potassium, twice before administration, once every 2 weeks during the administration period;
Blood biochemical and urine index detection equipment: Roche cobas6000 analyzer series C501 module detection. ELISA kit was used for NT-proBNP test.

Another data set deals with cynomolgus monkeys. Nature of the data set: 4-week safety study: urinalysis. It counts as in vivo. The settings on record: male and female monkeys. On the procedure: For the monkey study, at quarantine period (twice, d01 and d02), day 14, day 28 and day 56, the following parameters were measured as shown in Table 20. (1) Hematological and coagulation index examination were performed using a Bayer ADVIA2120 (Germany) and a Sysmex CA-1500 (Japan). (2) The serum biochemical examination was assessed using a HITACHI 7080 automated analyzer (Japan) and an Easylyte PLUS electrolyte analyzer (MEDICA, America). (3) The 24-h pooled urine of each animal was collected by a tray under each cage. Urinalysis was carried out using Uritest-300 (China). (4) The 24-h pooled faeces of each monkey were collected by a tray under each cage. Fecal occult blood was detected. (5) ACCESS 2 Chemiluminescence immunoassay was used for myocardial troponin (TropI, non-GLP) test.

We go through two compounds from patent US20230330093A1, “APPLICATION OF NITROGEN-CONTAINING SATURATED HETEROCYCLIC COMPOUND” (SHANGHAI PHARMACEUTICALS HOLDING CO., LTD., priority 2020, published 2023).

Molecules are shown by their SMILES. “And” between values parts separate entries of the source, which are not always exact repeats. Equal values may be shown once.

Consider `CCCCC(=O)N(Cc1ccc(-c2ccccc2-c2nnn[nH]2)cc1)[C@H](C(=O)O)C(C)C` [Valsartan, reference compound], for which the “K^+” value in data set [1] (2 weeks, Mean ± SD) was 5.09 ± 0.54 mmol/L; in data set [1] (2 weeks, individual animals), 5.38 mmol/L and 4.47 mmol/L and 5.43 mmol/L; in data set [1] (4 weeks, Mean ± SD), 5.04 ± 0.58 mmol/L; in data set [1] (4 weeks, individual animals), 5.68 mmol/L and 4.55 mmol/L and 4.88 mmol/L; in data set [1] (6 weeks, Mean ± SD), 5.06 ± 0.24 mmol/L; in data set [1] (6 weeks, individual animals), 5.28 mmol/L and 4.81 mmol/L and 5.09 mmol/L. Moreover, the “K^+” value in data set [1] (8 weeks, Mean ± SD) was 5.13 ± 0.74 mmol/L; in data set [1] (8 weeks, individual animals) it was 5.94 mmol/L and 4.50 mmol/L and 4.95 mmol/L; in data set [1] (Baseline 1, Mean ± SD), 4.37 ± 0.54 mmol/L; in data set [1] (Baseline 1, individual animals), 4.94 mmol/L and 3.86 mmol/L and 4.31 mmol/L; in data set [1] (Baseline 2, Mean ± SD), 4.66 ± 0.40 mmol/L; in data set [1] (Baseline 2, individual animals) it was 4.63 mmol/L and 4.27 mmol/L and 5.07 mmol/L.

Regarding `COC(=O)NCCCn1nc([C@@H](C)N(C(=O)[C@H]2CNCCO2)C2CC2)c2ccc(C)nc21` [compound of Formula I], the urinalysis parameters result in the data set with cynomolgus monkeys is recorded as “No significant changes”.
